The values that follow come from patent US7183061B2, “Method of expressing Heliothis ecdysone receptor fusion protein” (Syngenta Limited, priority 1996, dated 2007).

In assay [1] the test system is glucocorticoid receptor transactivating and DNA binding domains fused to the ecdysone receptor hinge and ligand binding domains. Particulars: mammalian cells; cited from earlier work.
In assay [2] the target is T1, glucocorticoid/Drosophila ecdysone chimeric receptor (UniProt P04150+P34021).
T1 construct: expressed in transfected cells; host or cells: maize suspension-culture protoplasts
T1 sequence (P04150+P34021 with tags, fused parts or gaps): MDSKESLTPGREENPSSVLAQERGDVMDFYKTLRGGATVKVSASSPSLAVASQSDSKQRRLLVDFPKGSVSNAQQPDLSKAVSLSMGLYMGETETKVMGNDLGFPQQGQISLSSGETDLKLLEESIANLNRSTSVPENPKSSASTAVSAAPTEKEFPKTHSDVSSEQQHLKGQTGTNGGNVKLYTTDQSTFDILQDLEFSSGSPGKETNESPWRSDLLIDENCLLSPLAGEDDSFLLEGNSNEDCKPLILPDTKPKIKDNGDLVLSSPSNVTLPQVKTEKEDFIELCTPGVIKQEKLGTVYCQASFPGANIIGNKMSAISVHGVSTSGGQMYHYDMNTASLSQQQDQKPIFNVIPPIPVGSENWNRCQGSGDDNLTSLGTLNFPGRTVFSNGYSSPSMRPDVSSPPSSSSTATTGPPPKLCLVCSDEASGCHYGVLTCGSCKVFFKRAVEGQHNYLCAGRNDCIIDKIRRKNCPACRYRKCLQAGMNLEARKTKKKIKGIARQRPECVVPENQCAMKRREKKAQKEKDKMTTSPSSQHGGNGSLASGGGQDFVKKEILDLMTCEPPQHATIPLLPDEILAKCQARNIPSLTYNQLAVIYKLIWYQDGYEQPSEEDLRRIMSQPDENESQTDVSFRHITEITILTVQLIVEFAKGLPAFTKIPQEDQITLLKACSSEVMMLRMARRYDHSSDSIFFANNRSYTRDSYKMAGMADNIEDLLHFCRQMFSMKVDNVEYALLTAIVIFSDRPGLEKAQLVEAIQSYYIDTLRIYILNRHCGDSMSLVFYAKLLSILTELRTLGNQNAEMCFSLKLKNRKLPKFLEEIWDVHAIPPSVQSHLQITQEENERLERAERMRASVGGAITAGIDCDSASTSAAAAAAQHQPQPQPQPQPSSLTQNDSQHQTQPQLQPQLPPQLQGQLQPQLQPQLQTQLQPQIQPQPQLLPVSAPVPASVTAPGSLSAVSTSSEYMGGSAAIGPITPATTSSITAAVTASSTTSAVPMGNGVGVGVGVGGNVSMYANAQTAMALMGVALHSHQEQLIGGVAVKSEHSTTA
The experiment in a line: Maize protoplast GUS reporter assay with pMF6GREcRS and p221.9GRE6. The format is cell-based. As to conditions: maize protoplasts, reporter plus effector, concentration not given. Background: Reporter assays use an easily measured gene product as a stand-in for the process of interest.

For `CC(C)(O)CC[C@@H](O)[C@](C)(O)[C@H]1CC[C@@]2(O)C3=CC(=O)[C@@H]4C[C@@H](O)[C@@H](O)C[C@]4(C)[C@H]3CC[C@]12C` [20-hydroxyecdysone], the “activity of chimeric receptor as homodimer” value in assay [1] is “not responsive”.

Regarding `CC(C)(C)N(NC(=O)c1ccccc1)C(=O)c1ccccc1` [RH5849, 1,2-dibenzoyl, 1-tert-butyl hydrazide], the “chemical induced reporter gene activity / induced levels of expression” value in assay [2] is “no chemical induced reporter gene activity”.
